Measured values: article PMC10046369, “Low-Affinity/High-Selectivity Dopamine Transport Inhibition Sufficient to Rescue Cognitive Functions in the Aging Rat” (Biomolecules, 2023)

Legend:
Experiment in all cases: biochemical
Design in all cases: KINOMEscan competition binding panel, per cent of control
Conditions in all cases: read-out: %Ctrl @ 2800nM
EGFR(L747-T751del,Sins) = EGFR(L747-T751del,Sins) (Homo sapiens, UniProt P00533, DEL747-750/T751S)
In short: (§1)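 Competition binding panel (KINOMEscan) across 450 human kinases and disease-relevant mutants, run to the contractor's standard protocol. Values are % control: (test signal − positive control signal)/(negative control signal − positive control signal) × 100, with lower values indicating stronger binding.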

BMX = BMX (Homo sapiens, UniProt P51813)
In short: as §1

ERK8 = biological target: T1, ERK8 (Homo sapiens, UniProt Q8TD08)
T1 construct: gene MAPK15
In short: as §1

FLT3(D835V) = FLT3(D835V) (Homo sapiens, UniProt P36888, D835V)
In short: as §1

MAP3K1 = MAP3K1 (Homo sapiens, UniProt Q13233)
In short: as §1

AKT2 = AKT2 (Homo sapiens, UniProt P31751)
In short: as §1

AURKB = AURKB (Homo sapiens, UniProt Q96GD4)
In short: as §1

MRCKB = biological target: T2, MRCKB (Homo sapiens, UniProt Q9Y5S2)
T2 construct: gene CDC42BPB
In short: as §1

TLK2 = TLK2 (Homo sapiens, UniProt Q86UE8)
In short: as §1

MAP4K2 = MAP4K2 (Homo sapiens, UniProt Q12851)
In short: as §1

CLK1 = CLK1 (Homo sapiens, UniProt P49759)
In short: as §1

BMPR1A = BMPR1A (Homo sapiens, UniProt P36894)
In short: as §1

[1] = biological target: T3, ABL1(F317L)-nonphosphorylated (Homo sapiens, UniProt P00519, F317L)
T3 construct: nonphosphorylated
In short: as §1

[2] = biological target: EGFR(L747-S752del, P753S) (Homo sapiens, UniProt P00533, DEL747-752/P753S)
In short: as §1

CDK3 = CDK3 (Homo sapiens, UniProt Q00526)
In short: as §1

PRKCD = PRKCD (Homo sapiens, UniProt Q05655)
In short: as §1

KIT(V559D,T670I) = KIT(V559D,T670I) (Homo sapiens, UniProt P10721, T670I/V559D)
In short: as §1

SNARK = biological target: T4, SNARK (Homo sapiens, UniProt Q9H093)
T4 construct: gene NUAK2
In short: as §1

PFTK1 = biological target: T5, PFTK1 (Homo sapiens, UniProt O94921)
T5 construct: gene CDK14
In short: as §1

CSF1R = CSF1R (Homo sapiens, UniProt P07333)
In short: as §1

STK35 = STK35 (Homo sapiens, UniProt Q8TDR2)
In short: as §1

[3] = biological target: T6, RSK2(Kin.Dom.1-N-terminal) (Homo sapiens, UniProt P51812)
T6 construct: gene RPS6KA3; Kin.Dom.1-N-terminal
In short: as §1

FLT3(R834Q) = FLT3(R834Q) (Homo sapiens, UniProt P36888, R834Q)
In short: as §1

JNK1 = biological target: T7, JNK1 (Homo sapiens, UniProt P45983)
T7 construct: gene MAPK8
In short: as §1

CDK7 = CDK7 (Homo sapiens, UniProt P50613)
In short: as §1

Chain of CDK7 (P50613 whole entry): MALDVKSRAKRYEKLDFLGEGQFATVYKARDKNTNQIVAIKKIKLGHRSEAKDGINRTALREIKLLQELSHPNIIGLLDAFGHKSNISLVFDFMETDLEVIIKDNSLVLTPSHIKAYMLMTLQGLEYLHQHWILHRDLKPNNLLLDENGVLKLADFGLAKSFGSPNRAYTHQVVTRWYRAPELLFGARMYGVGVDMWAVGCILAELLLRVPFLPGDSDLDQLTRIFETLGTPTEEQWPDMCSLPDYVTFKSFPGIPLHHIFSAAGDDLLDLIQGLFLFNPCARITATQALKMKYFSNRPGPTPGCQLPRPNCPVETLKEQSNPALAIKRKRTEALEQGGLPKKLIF
T7 sequence (P45983 whole entry): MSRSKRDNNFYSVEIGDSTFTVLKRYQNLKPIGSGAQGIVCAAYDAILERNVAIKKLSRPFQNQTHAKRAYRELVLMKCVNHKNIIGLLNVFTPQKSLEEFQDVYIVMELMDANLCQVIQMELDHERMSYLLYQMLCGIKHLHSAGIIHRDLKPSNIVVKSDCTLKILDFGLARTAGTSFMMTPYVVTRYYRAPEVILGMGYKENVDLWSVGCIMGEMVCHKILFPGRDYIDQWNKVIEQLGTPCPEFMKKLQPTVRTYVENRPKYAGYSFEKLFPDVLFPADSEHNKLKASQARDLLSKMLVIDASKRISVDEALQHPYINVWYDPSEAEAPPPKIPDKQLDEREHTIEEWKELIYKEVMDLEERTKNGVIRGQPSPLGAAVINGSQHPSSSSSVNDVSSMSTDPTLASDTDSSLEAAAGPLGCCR
T2 sequence (Q9Y5S2 whole entry): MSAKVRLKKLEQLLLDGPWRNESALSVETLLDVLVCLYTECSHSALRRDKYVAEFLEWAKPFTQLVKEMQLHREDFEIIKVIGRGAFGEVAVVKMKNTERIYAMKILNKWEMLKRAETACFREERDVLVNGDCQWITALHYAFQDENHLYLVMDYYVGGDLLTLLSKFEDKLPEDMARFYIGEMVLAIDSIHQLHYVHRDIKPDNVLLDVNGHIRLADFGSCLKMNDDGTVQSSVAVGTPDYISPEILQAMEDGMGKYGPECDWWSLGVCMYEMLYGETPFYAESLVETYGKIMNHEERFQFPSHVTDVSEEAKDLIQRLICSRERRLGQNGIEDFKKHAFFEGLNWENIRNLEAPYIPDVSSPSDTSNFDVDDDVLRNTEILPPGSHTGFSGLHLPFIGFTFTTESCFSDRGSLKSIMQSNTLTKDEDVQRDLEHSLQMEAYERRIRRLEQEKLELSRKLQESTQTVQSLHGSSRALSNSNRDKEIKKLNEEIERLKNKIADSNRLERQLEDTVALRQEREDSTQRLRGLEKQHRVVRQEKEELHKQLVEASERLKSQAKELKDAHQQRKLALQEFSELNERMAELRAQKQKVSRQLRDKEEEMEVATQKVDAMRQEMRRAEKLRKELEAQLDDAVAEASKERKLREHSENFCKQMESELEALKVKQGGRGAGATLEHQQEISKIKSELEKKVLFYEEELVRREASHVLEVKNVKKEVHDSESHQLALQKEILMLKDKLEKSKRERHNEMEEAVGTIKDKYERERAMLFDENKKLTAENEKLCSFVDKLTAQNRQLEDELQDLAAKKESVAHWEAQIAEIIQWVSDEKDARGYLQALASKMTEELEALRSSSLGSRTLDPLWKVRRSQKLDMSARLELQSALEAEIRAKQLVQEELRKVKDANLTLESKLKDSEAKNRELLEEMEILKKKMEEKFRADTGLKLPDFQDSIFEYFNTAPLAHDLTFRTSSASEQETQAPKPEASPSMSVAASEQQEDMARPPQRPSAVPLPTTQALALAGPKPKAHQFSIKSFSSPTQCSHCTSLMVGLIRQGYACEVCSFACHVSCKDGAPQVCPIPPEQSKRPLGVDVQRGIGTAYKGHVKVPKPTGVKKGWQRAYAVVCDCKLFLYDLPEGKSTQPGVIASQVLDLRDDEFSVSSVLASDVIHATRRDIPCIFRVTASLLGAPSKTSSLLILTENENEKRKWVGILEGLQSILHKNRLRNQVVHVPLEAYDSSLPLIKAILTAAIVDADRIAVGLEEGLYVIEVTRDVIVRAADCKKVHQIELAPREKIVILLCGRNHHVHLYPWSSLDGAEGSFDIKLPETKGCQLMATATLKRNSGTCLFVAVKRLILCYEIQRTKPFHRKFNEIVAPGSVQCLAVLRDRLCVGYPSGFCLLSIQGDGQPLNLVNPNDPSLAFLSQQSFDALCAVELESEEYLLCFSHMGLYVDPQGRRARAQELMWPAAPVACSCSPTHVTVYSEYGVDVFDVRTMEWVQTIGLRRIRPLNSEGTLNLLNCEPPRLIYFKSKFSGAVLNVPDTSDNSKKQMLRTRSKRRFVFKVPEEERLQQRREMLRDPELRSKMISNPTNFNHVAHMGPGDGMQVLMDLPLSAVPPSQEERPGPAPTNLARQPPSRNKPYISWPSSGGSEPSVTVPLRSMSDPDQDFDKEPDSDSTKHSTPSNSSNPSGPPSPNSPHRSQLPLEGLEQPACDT
Chain of BMX (P51813 whole entry): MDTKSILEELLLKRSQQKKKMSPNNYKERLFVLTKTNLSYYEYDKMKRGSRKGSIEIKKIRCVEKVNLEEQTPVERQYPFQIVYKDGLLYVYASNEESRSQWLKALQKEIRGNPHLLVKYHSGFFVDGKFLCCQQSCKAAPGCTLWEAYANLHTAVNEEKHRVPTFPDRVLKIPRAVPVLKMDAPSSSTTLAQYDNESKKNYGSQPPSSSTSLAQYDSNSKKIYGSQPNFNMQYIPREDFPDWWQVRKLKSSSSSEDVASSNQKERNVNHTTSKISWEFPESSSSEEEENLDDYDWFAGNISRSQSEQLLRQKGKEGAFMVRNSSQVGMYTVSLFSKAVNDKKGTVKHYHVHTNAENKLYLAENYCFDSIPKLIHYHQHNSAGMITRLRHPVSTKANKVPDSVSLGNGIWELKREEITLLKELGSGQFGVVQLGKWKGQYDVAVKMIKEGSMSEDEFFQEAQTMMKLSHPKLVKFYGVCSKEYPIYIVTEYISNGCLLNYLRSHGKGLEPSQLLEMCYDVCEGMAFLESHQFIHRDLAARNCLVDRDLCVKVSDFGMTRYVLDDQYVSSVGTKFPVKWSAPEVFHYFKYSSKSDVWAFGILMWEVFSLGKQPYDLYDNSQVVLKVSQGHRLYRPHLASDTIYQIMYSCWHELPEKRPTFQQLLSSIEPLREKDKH
Chain of PRKCD (Q05655 whole entry): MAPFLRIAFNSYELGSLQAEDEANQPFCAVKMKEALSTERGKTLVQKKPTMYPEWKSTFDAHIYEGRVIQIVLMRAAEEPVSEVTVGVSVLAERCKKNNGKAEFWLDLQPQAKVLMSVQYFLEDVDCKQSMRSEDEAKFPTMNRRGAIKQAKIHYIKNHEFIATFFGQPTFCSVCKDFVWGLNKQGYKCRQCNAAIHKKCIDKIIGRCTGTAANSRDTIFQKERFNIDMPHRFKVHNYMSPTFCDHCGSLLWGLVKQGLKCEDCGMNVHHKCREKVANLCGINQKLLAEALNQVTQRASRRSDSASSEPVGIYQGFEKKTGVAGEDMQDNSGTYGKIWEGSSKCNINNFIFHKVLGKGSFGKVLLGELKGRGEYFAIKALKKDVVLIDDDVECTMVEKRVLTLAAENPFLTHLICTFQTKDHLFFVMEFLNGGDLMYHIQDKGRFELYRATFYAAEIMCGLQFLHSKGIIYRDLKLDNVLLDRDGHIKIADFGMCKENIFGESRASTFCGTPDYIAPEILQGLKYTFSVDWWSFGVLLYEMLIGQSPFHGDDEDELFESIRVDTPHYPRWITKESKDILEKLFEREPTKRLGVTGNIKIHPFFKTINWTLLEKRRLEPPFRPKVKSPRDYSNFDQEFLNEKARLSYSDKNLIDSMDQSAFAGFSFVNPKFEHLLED
T6 sequence (P51812 whole entry): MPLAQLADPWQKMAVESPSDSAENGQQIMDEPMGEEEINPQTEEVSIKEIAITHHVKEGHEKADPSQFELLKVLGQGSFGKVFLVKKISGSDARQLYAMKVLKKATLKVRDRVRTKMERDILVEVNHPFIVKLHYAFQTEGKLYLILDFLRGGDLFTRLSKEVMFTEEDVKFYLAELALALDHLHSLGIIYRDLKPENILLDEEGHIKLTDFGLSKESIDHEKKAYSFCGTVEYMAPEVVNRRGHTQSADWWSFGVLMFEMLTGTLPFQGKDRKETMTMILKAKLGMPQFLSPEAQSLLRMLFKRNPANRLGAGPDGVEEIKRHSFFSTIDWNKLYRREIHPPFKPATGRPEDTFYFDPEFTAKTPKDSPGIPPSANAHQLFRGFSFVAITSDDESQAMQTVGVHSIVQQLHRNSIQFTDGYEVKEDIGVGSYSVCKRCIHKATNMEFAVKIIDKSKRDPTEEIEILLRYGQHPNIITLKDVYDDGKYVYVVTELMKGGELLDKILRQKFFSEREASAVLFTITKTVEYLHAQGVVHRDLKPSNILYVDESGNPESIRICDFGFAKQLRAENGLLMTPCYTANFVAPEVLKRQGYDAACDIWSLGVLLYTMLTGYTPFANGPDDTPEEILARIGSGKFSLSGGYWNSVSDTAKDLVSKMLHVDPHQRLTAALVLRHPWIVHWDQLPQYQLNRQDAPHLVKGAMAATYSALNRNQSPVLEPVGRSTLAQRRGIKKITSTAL
Chain of AURKB (Q96GD4 whole entry): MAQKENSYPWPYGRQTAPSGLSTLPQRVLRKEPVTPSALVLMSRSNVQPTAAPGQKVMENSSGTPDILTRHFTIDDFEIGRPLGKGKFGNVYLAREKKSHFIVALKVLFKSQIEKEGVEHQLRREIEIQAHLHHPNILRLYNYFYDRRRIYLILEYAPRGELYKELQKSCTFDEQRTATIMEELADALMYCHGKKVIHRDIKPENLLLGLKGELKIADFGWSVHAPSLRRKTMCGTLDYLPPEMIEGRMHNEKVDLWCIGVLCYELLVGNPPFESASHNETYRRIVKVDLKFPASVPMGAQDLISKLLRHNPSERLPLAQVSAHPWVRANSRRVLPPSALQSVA

Question: `[O-][S@@+](Cc1cncs1)C(c1ccccc1)c1ccccc1` [S-CE-123, (S)-5-((Benzhydrylsulfinyl)Methyl)Thiazole] was tested. Which remaining binding at 2.8 µM (EGFR(L747-T751del,Sins)) did it give?
Answer: Its remaining binding at 2.8 µM is 57%.

Question: And the remaining binding at 2.8 µM (BMX)?
Answer: Its remaining binding at 2.8 µM is 57%.

Question: And the remaining binding at 2.8 µM (ERK8)?
Answer: Its remaining binding at 2.8 µM is 100%.

Question: And the remaining binding at 2.8 µM (FLT3(D835V))?
Answer: Its remaining binding at 2.8 µM is 100%.

Question: What about the remaining binding at 2.8 µM (MAP3K1) of the same molecule?
Answer: The remaining binding at 2.8 µM was 85%.

Question: And the remaining binding at 2.8 µM (AKT2)?
Answer: The remaining binding at 2.8 µM was 87%.

Question: What about the remaining binding at 2.8 µM (AURKB) of the same molecule?
Answer: The remaining binding at 2.8 µM was 78%.

Question: What about the remaining binding at 2.8 µM (MRCKB) of the same molecule?
Answer: Its remaining binding at 2.8 µM is 98%.

Question: What about the remaining binding at 2.8 µM (TLK2) of the same molecule?
Answer: The remaining binding at 2.8 µM was 95%.

Question: And the remaining binding at 2.8 µM (MAP4K2)?
Answer: The remaining binding at 2.8 µM was 100%.

Question: And the remaining binding at 2.8 µM (CLK1)?
Answer: The remaining binding at 2.8 µM was 96%.

Question: And the remaining binding at 2.8 µM (BMPR1A)?
Answer: Its remaining binding at 2.8 µM is 100%.

Question: What about the remaining binding at 2.8 µM [1] of the same molecule?
Answer: The remaining binding at 2.8 µM was 100%.

Question: What about the remaining binding at 2.8 µM [2] of the same molecule?
Answer: The remaining binding at 2.8 µM was 96%.

Question: What about the remaining binding at 2.8 µM (CDK3) of the same molecule?
Answer: Its remaining binding at 2.8 µM is 100%.

Question: What about the remaining binding at 2.8 µM (PRKCD) of the same molecule?
Answer: The remaining binding at 2.8 µM was 89%.

Question: What about the remaining binding at 2.8 µM (KIT(V559D,T670I)) of the same molecule?
Answer: The remaining binding at 2.8 µM was 83%.

Question: And the remaining binding at 2.8 µM (SNARK)?
Answer: Its remaining binding at 2.8 µM is 100%.

Question: What about the remaining binding at 2.8 µM (PFTK1) of the same molecule?
Answer: The remaining binding at 2.8 µM was 92%.

Question: And the remaining binding at 2.8 µM (CSF1R)?
Answer: Its remaining binding at 2.8 µM is 76%.

Question: And the remaining binding at 2.8 µM (STK35)?
Answer: Its remaining binding at 2.8 µM is 98%.

Question: And the remaining binding at 2.8 µM [3]?
Answer: The remaining binding at 2.8 µM was 100%.

Question: What about the remaining binding at 2.8 µM (FLT3(R834Q)) of the same molecule?
Answer: Its remaining binding at 2.8 µM is 90%.

Question: What about the remaining binding at 2.8 µM (JNK1) of the same molecule?
Answer: Its remaining binding at 2.8 µM is 67%.

Question: And the remaining binding at 2.8 µM (CDK7)?
Answer: The remaining binding at 2.8 µM was 70%.
